Data from PMC6828666, “Discovery of holoenzyme-disrupting chemicals as substrate-selective CK2 inhibitors” (Scientific Reports, 2019).
Each block holds one compound with its values, some of them ahead of it.

Legend:
[1] = biological target: T1, CK2 holoenzyme complexes in MCF10A cells (Homo sapiens, UniProt P68400); assay: In situ proximity ligation assay (PLA); type: cell-based; conditions: 50 μM, 3 h, DMSO control 16 ± 4
T1 construct: endogenous in cells; host or cells: MCF10A
Experimental: In situ PLAs were performed using a Duolink kit (Olink Bioscience, Uppsala, Sweden) according to the manufacturer’s instructions with few modifications. MCF10A cells were fixed in 4% paraformaldehyde for 10 min. The cells were then permeabilized with 0.1% Triton in Tris-buffered saline (TBS; 50 mM Tris, pH 7.6, 150 mM NaCl) and incubated with 100 mM glycine in phosphate-buffered saline (137 mM NaCl, 2.7 mM KCl, 10 mM Na2 HPO4, and 1.8 mM KH2 PO4, pH 7.4) for 20 min. Permeabilized cells were incubated overnight at 4 °C with primary antibodies diluted as follows: mouse CK2α 1:250 and rabbit CK2β 1:50. Cells were washed three times in TBS with 0.05% Tween-20 for 5 min each with gentle agitation. Secondary antibodies conjugated with oligonucleotides, PLA probe anti-mouse MINUS and PLA probe anti-rabbit PLUS, were added to the cells and incubated for 90 min at 37 °C in a humidity chamber. Finally, after ligation and amplification steps, cells were counterstained with the DNA-binding dye Hoechst and Phaloïdine-488 for actin staining (Molecular Probes, Thermo Fisher Scientific, Courtaboeuf, France). Images were observed using a Zeiss Apotome microscope and analyzed using a Zen Pro imaging software (Zeiss, Oberkochen, Germany). Quantification was performed using the BlobFinder software (V3.2, Swedish University of Agricultural Sciences, Uppsala University)[67]. […]

[2] = system: p21 phosphorylation at Thr145 in MCF10A cells; assay: Western blot of p21 Thr145 phosphorylation; type: cell-based, human; conditions: 24 h
Experimental: Figure 5 Cellular effects of compounds 3, 4 and 6. MCF10A cells were incubated for 24 h with either DMSO or 30 μM TAT or 30 μM TAT-Pc or 25 μM 6 (a) or with increasing concentrations of 6 (b) or 3 (c). MCF10A cells were incubated for 48 h with either DMSO or with increasing concentrations of 3 or 6 (d). Cells were then lysed and analyzed by western blot with the indicated antibodies. Blot images are representative of at least three independent experiments. Uncropped blots are shown in Supplementary Fig. S16. (e) MDA-MB231 cells were treated with 40 μM 6 (⚬), 4 (▴) or 3 (X). (f) MDA-MB231 cells were treated for 30 h with increasing concentrations of 6 (⚬) or 4 (▴). Insert: cells were treated for 30 h with 80 μM 6 or 10 μM CX-4945. (g) Cells were incubated with 80 μM 6 or 4 in the absence or presence of 20 μM Z-VAD. […] (h) MDA-MB231 cells (⚬) or MCF10A cells (⦁) were incubated for 24 h with 80 μM 6. Cell death was automatically quantified from images captured every 3 h for the duration of the experiments using an Essen IncuCyte Zoom live-cell microscopy incubator. Error bars represent the SEM of two biological replicates derived from technical triplicates.
(§1) Cells were lysed in RIPA buffer (10 mM Tris-HCl pH 7.4, 150 mM NaCl, 1% Triton X-100, 0.1% SDS, 0.5% DOC and 1 mM EDTA) containing both protease- and phosphatase-inhibitor cocktails (Sigma-Aldrich; P8340, P2850, P5726). Cell homogenates were quantified using BCA protein Assay kit (Thermo Scientific). SDS-PAGE was performed using pre-cast 4–12% gradient gel (Bio-Rad) and submitted to electrophoresis in NuPAGE buffer (150 V for 75 min). Separated proteins at 20 μg/lane were transferred to PVDF membranes (100 V for 60 min). […] Luminata Forte Western HRP substrate (Millipore) was added and membranes were read with Fusion Fx7 (PerkinElmer). […] Images were analyzed and band intensities were quantified using ImageJ software. […]

MDA-MB231 cells [3] = assay: Apoptosis by annexin V/propidium iodide staining; type: cell-based; conditions: MDA-MB231, 40 μM, AV/PI staining
Experimental: Cells plated at equal density (2 × 10^4 cells/well) were treated with the indicated inhibitors in cell culture medium containing 0.5 μg/ml Propidium iodide (Sigma-Aldrich). Images of PI-stained red fluorescent cells were captured every 3 h for the duration of the experiment. For apoptosis detection, 50 μL/mL fluorochrome-conjugated Annexin V (Molecular Probes) was added to the medium together with Propidium iodide and apoptotic cell numbers were calculated.
Fig. S12. […] Cell viability was assessed by Annexin V staining (a) or PI staining (b) using the Essen IncuCyte Zoom live-cell microscopy incubator. Images were captured every hour for the duration of the experiment. Error bars represent the SEM of two biological replicates derived from technical triplicates.

MCF10A cells = assay: Scratch wound cell migration assay; type: cell-based, human; conditions: 40 μM
Experimental: (§2) Cells seeded at equal density were allowed to grow to confluence overnight. The Essen Bioscience WoundMaker^TM, an accessory for the IncuCyte Zoom®, was utilized to create Scratch-wounds of a standardized width (~600 μm). Cells were treated with the indicated inhibitors and imaged every 15 min for 44 h and the percentage of wound confluence was analyzed.
(§3) Fig. S10. […] MCF10A cells (a) or MDA-MB231 cells (b) were allowed to grow to confluence overnight. Wounds of a standardized width were created using the Essen Bioscience WoundMakerTM. […] Wound closure was monitored using the Essen IncuCyte Zoom live-cell microscopy incubator. Images were captured every 2 h for the duration of the experiment. Error bars represent the SEM of two biological replicates derived from technical triplicates.

[4] = system: Akt phosphorylation at Ser129 in MCF10A cells; assay: Western blot of Akt Ser129 phosphorylation; type: cell-based, human; conditions: 48 h
Experimental: Figure 5 Cellular effects of compounds 3, 4 and 6. MCF10A cells were incubated for 24 h with either DMSO or 30 μM TAT or 30 μM TAT-Pc or 25 μM 6 (a) or with increasing concentrations of 6 (b) or 3 (c). MCF10A cells were incubated for 48 h with either DMSO or with increasing concentrations of 3 or 6 (d). Cells were then lysed and analyzed by western blot with the indicated antibodies. Blot images are representative of at least three independent experiments. Uncropped blots are shown in Supplementary Fig. S16. (e) MDA-MB231 cells were treated with 40 μM 6 (⚬), 4 (▴) or 3 (X). (f) MDA-MB231 cells were treated for 30 h with increasing concentrations of 6 (⚬) or 4 (▴). Insert: cells were treated for 30 h with 80 μM 6 or 10 μM CX-4945. […] Cell death was automatically quantified from images captured every 3 h for the duration of the experiments using an Essen IncuCyte Zoom live-cell microscopy incubator. […]
as §1, with “Scientific).” for “Scientific). SDS-PAGE was performed using pre-cast 4–12% gradient gel (Bio-Rad) and submitted to electrophoresis in NuPAGE buffer (150 V for 75 min). Separated proteins at 20 μg/lane were transferred to PVDF membranes (100 V for 60 min).”

MDA-MB231 cells [5] = assay: Scratch wound cell migration assay; type: cell-based; conditions: MDA-MB231, 40 μM
Experimental: as §2, §3

T1 sequence (P68400 whole entry, one chain of several): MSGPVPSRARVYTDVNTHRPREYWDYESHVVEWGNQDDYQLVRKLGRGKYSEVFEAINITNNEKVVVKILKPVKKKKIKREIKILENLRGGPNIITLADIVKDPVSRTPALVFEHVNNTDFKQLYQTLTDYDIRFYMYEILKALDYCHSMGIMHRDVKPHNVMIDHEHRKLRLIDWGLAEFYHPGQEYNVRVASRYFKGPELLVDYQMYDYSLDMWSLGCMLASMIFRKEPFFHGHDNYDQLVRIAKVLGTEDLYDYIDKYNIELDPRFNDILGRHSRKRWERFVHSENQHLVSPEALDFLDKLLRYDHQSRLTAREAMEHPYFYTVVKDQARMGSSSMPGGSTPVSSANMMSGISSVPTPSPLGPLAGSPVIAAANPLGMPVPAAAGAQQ

- CK2 holoenzyme complexes (PLA dots) [1]: 8 ± 2 dots/cell
Compound: O=C(OCC1CCN(CCNS(=O)(=O)c2ccccc2)CC1)c1c[nH]c2ccccc12 [Compound 4, (1-(2-(Phenylsulfonamido)ethyl)piperidin-4-yl)methyl 1H-indole-3-carboxylate]

Compound: CS(=O)(=O)NCCN1CCC(COC(=O)c2c[nH]c3ccccc23)CC1 [Compound 3, (1-(2-(Methylsulfonamido)ethyl)piperidin-4-yl)methyl 1H-indole-3-carboxylate]
- p21 phosphorylation ([2]; 100 μM): moderate increase
- induction of apoptosis (MDA-MB231 cells [3]): unable to induce apoptosis
- cell migration / wound closure (MCF10A cells): not affected
- Akt phosphorylation at Ser129 ([4]; 100 µM): slight but not statistically significant alteration
- cell migration / wound closure (MDA-MB231 cells [5]): not affected

Compound: COc1[nH]c2ccc(F)cc2c1C(=O)OCC1CCN(CCNS(=O)(=O)c2ccccc2)CC1.Cl [Compound 6]
- concentration at which p21 Thr145 phosphorylation reaches the maximum [2]: 20 µM
- p21 Thr145 phosphorylation ([2]; increasing concentrations): striking dose-dependent increase
- exposure time after which apoptosis was detected (MDA-MB231 cells [3]): 8 h
- cell migration / wound closure (MCF10A cells): completely abrogated
- CK2 holoenzyme complexes (PLA dots) [1]: 6 ± 2 dots/cell
- Akt phosphorylation at Ser129 ([4]; 30 µM): slight but not statistically significant alteration
- cell migration / wound closure (MDA-MB231 cells [5]): completely abrogated
